Columns and labels:
Format in all cases: physicochemical
[1] = Storage stability of lyophilized formulation, HPLC of content and decomposed materials
Description: After the formulation as prepared according to Example 1 was stored at 50° C. for 2 months, the amounts of decomposed materials produced by hydrolysis were determined and compared. Typical decomposed materials are:
The relationship of the contents of compound 1, the amounts of the decomposed materials, and the added amounts of D-mannitol comprised in between the formulation before the storage and that after the storage at 50° C. for 2 months, is shown in Table 2. The determination was conducted using high performance liquid chromatography (HPLC). The determination conditions of HPLC are as shown below: • Device: Waters 600E,484,712 wisp,74 1,FD20A • Column: J'sphere ODS-L80, S-4μm, 80A 150×4.6 mmφ • Moving phase: water/acetonitrile/acetic acid=100/100/1 • Flow rate: 1.0 ml/min • Injected volume: • 20 μL (at the time for determination of impure materials) • 10 μL (at the time for determination of compound 1) • Detection wavelength • 275 nm • Detection sensibility (AUFS): • 0.64 (at the time for determination of impure materials) • 0.20 (at the time for determination of compound 1) • Solvent for dilution of samples: • water/acetonitrile/acetic acid=100/100/1 • Concentration of samples • 1 mg/ml (at the time for determination of impure materials) • 60.0 μg/ml (at the time for determination of compound 1)

[2] = Determination of surface tension by Wilhelmy method
Description: A compound to be determined that has been weighed is dissolved or suspended in a defined amount of a distilled water. As such, samples of aqueous solutions to be tested containing the compound at various concentrations are prepared, and each of the solutions is adjusted to be 50 ml aliquots.
Surface tension-measuring device (Kruess Inc., Type K12) and the personal computer for control and analysis are started, and a software for determining surface tension (Kruess Inc., K122) is launched. The determination site of the device is subjected to the circulation of the water from a thermostatic chamber to keep the temperature constant at 25° C. […]
(§1) Forty ml of a distilled water is poured into the vessel that have been washed, and the vessel is placed into the surface tension-measuring device. […] In this condition, surface tensions are determined. […] When the value of surface tension as determined one minute later is almost constant, then the value is recorded and the determination is stopped.
as §1, with “After the blank determination, 40” for “Forty”, “sample of aqueous solutions” for “distilled water”, “stopped. […]” for “stopped.”

[3] = Ross-Miles Foaming Test (foaming vs pH); conditions: 0.1% w/w in water for injection, 25° C., ISO 696-1975
Description: Compound 1 was dissolved in a water for injection (0.1% w/w), and the solution was quantitatively determined for foaming by Ross-Miles Foaming Test. Ross-Miles Foaming Test was conducted according to the method as defined in International Standard ISO 696-1975 except that the determination temperature was set 25° C.

[4] = D-mannitol 0% of the weight of compound 1
[5] = D-mannitol 25% of the weight of compound 1
[6] = D-mannitol 50% of the weight of compound 1
[7] = D-mannitol 100% of the weight of compound 1

For `CC1(C)CC[C@]2(C(=O)[O-])CC[C@]3(COC(=O)/C=C/c4cc(O)ccc4NC(=O)/C=C/C(=O)[O-])C(=CC[C@@H]4[C@@]5(C)CCC(=O)C(C)(C)[C@@H]5CC[C@]43C)[C@@H]2C1.[Na+].[Na+]` [compound 1], the “Content of compound 1 (after storage at 50° C. for 2 months)” value (from here on “Content”) [1, 4] was 97.1 ± 0.1%, the “amount of Other related compounds, After storage at 50° C. for 2 months” value (“amount of Other related compounds … for 2 months” below) [1, 4] was 0.66 ± 0.14% and the “amount of Other related compounds, Before storage” value [1, 4] was 0.32 ± 0.02%. The “amount of decomposed material compound A, After storage at 50° C. for 2 months” value [1, 4] was 1.71 ± 0.08%, the “amount of decomposed material compound A, Before storage” value [1, 4] was 0.26 ± 0.02% and the “Content” value [1, 5] was 97.9 ± 0.4%. For the same compound, the “amount of Other related compounds … for 2 months” value [1, 5] was 0.87 ± 0.02%, the “amount of Other related compounds, Before storage” value [1, 5] was 0.33 ± 0.03% and the “amount of decomposed material compound A, After storage at 50° C. for 2 months” value [1, 5] was 0.44 ± 0.01%. For the same compound, the “amount of decomposed material compound A, Before storage” value [1, 5] was 0.13 ± 0.01%, the “Content” value [1, 6] was 98.0 ± 0.1% and the “amount of Other related compounds … for 2 months” value [1, 6] was 0.89 ± 0.05%. The “amount of Other related compounds, Before storage” value [1, 6] was 0.32 ± 0.02%, the “amount of decomposed material compound A, After storage at 50° C. for 2 months” value [1, 6] was 0.24 ± 0.01% and the “amount of decomposed material compound A, Before storage” value [1, 6] was 0.11 ± 0.01%. The “Content” value [1, 7] was 98.3 ± 0.1%, the “amount of Other related compounds … for 2 months” value [1, 7] was 1.24 ± 0.05% and the “amount of Other related compounds, Before storage” value [1, 7] was 0.31 ± 0.01%. For the same compound, the “amount of decomposed material compound A, After storage at 50° C. for 2 months” value [1, 7] was 0.23 ± 0.02%, the “amount of decomposed material compound A, Before storage” value [1, 7] was 0.11 ± 0.01% and the surface tension ([2]; 37.6 mM solution of compound 1 in water, 25° C., Wilhelmy method) was 53.9±0.2 mN/m. The “decrease in surface tension, pH 9.5 vs pH 7 to 7.5” value ([2]; aqueous solutions at various concentrations, pH 9.5 adjusted with sodium hydroxide, FIG. 1) was “the decrease in the surface tension is inhibited at pH 9.5 more than that at pH7 to 7.5” and the “foaming by Ross-Miles Foaming Test in relation to pH” value [3] was “the foaming was inhibited depending on the increase in pH”.

— patent US7645793B2, “Injectable pharmaceutical formulations” (Shionogi & Co., Ltd., priority 2001, dated 2010)
